Earlier results as cited in paper PMC10643470, “Knockout or inhibition of USP30 protects dopaminergic neurons in a Parkinson’s disease mouse model” (Nature Communications, 2023).

Legend:
[1] = system: SHSY5Y neuroblastoma cells; parameters: method as in PMID 32636217; settings: SHSY5Y neuroblastoma cells ref 42; cited from earlier work
[2] = system: SHSY5Y neuroblastoma cells; parameters: method as in PMID 32636217; settings: SHSY5Y neuroblastoma cells ref 42; cited from earlier work; remark: listed apart in the source
[3] = system: USP30; settings: cited from earlier work

N#CN1CC[C@@H](NC(=O)c2cc(-c3ccccc3Oc3ccccc3)n[nH]2)C1 [FT3967385]
Mitophagy levels [1]: significantly increases | Ubiquitylation of TOM20 [2]: significantly increases

CC(C)(C)NS(=O)(=O)c1cccc2c(NC(=O)[C@H](Cc3ccccc3)NC(=O)C3CCCCC3)cccc12 [MF-094]
USP30 inhibition in biochemical assays [3]: identified as USP30 inhibitors

CC(C)(C)NS(=O)(=O)c1cccc2c(NC(=O)[C@H](Cc3ccccc3)NC(=O)C3CC3)cccc12 [MF-095]
USP30 inhibition in biochemical assays [3]: identified as USP30 inhibitors
